How the values were obtained:
Type in all cases: biochemical
[1] = biological target: T1, human liver X receptor α-GST fusion protein (LXR-α) (Homo sapiens, UniProt Q13133); experiment: Agonist assay with nuclear receptor-GST fusion protein, LXR-α; conditions: FIG. 9
T1 construct: made in house
T1 sequence (Q13133 209-447 limits assumed): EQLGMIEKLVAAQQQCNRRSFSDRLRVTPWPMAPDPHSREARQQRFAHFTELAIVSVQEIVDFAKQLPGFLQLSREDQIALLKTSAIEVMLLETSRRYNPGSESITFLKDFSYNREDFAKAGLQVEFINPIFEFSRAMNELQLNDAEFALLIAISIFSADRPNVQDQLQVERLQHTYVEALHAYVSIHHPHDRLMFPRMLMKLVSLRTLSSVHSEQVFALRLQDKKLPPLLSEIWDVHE

[2] = biological target: T2, human liver X receptor β-GST fusion protein (LXR-β) (Homo sapiens, UniProt P55055); experiment: Agonist assay with nuclear receptor-GST fusion protein, LXR-β; conditions: FIG. 9
T2 construct: made in house
T2 sequence (P55055 222-460 limits assumed): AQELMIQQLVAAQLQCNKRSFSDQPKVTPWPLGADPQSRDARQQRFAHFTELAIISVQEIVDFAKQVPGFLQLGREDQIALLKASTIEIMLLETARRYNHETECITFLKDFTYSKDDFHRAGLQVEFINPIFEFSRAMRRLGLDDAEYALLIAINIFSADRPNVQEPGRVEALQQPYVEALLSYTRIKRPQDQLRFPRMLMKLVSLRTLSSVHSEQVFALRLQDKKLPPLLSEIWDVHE

[3] = biological target: T3, human estrogen receptor α-GST fusion protein (ER-α) (Homo sapiens, UniProt P03372); experiment: Assay of ligand using coactivator SRC1-bound plate, ER-α (present detection method); conditions: HRP-labeled anti-GST antibody, 450 nm, FIG. 6
T3 construct: made in house; host or cells: Escherichia coli BL21
T3 sequence (P03372 311-547 limits assumed): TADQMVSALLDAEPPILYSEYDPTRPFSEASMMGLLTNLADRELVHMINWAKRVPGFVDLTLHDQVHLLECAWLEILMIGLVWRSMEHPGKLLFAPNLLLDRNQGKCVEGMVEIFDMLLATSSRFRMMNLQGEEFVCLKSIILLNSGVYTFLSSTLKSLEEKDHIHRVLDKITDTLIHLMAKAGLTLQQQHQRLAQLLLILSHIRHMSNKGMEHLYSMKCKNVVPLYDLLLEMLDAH
Description: In a manner similar to that of the aforementioned existing method, a purified ER-α product (10 mL) was prepared from an ER-α cell culture (1 L). By use of this product, the amount of an assay reagent prepared was examined as described hereinbelow. Avidin was immobilized on a plate in advance, and a biotinylated coactivator SRC1 (0.01 mg/mL, dissolved in DMSO) was prepared into a solution (final concentration: […]) by use of a washing buffer. The thus-prepared solution was dispensed into the plate (100 μL/well), followed by impregnation for one hour, to thereby prepare an SRC1-bound plate. […] After reaction with shaking for one hour, the plate was washed with a washing buffer, and an HRP-labeled anti-GST antibody solution prepared by diluting the antibody with a washing buffer by a factor of 1/40,000 was dispensed into the plate (100 μL/well), followed by reaction with shaking for one hour. After reaction, the plate was washed with a washing buffer; a color-developing reagent was added to the plate (100 μL/well); and the plate was allowed to stand still for 10 minutes for color development reaction. Color development reaction was stopped by use of 1 N sulfuric acid, followed by measurement at a wavelength of 450 nm by means of a plate reader.
An HRP-labeled anti-GST antibody was employed for assay.

[4] = biological target: T4, human estrogen receptor β-GST fusion protein (ER-β) (Homo sapiens, UniProt Q92731); experiment: Assay of ligand using coactivator SRC1-bound plate, ER-β; conditions: HRP-labeled anti-GST antibody, 450 nm, FIG. 6
T4 construct: made in house; host or cells: Escherichia coli BL21
T4 sequence (Q92731 264-498 limits assumed): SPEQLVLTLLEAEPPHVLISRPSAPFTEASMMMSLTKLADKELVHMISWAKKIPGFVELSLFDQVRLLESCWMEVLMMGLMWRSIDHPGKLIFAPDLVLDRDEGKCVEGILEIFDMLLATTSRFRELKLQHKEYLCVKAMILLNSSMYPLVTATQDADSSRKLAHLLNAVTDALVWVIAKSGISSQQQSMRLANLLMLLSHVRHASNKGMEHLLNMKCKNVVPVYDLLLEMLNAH

| Compound | OD, agonist dose dependence [1] | OD, agonist dose dependence [2] | OD (binding of receptor to immobilized coactivator), agonist mode [3] | OD (binding of receptor to immobilized coactivator), agonist mode [4] |
| --- | --- | --- | --- | --- |
| O=S(=O)(c1ccccc1)N(CC(F)(F)F)c1ccc(C(O)(C(F)(F)F)C(F)(F)F)cc1 [TO-901317] | OD was increased in a manner dependent on the dose of the corresponding agonist | OD was increased in a manner dependent on the dose of the corresponding agonist |  |  |
| CC(C)(c1ccc(O)cc1)c1ccc(O)cc1 [bisphenol A] |  |  | increase in OD was observed | increase in OD was observed |
| CC/C(=C(/CC)c1ccc(O)cc1)c1ccc(O)cc1 [diethylstilbestrol] |  |  |  | increase in OD was observed |
| nonylphenol |  |  | increase in OD was observed | increase in OD was observed |
